This note sets out measurements from US9474281B2, “Fungicidal composition and method for controlling plant diseases” (ISHIHARA SANGYO KAISHA, LTD., priority 2008, dated 2016).

Where “and” joins values, the source holds several entries; their conditions need not be identical. Identical values can stand only once.

The test system of one assay is Sphaerotheca cucurbitae. Kind of assay: Test on preventive effect against cucumber powdery mildew. Also noted: scale not given here. The note with it: applied alone. In kind it is in vivo. The method, then:
Cucumber (cultivar: Suyo) was cultivated in a plastic pot having a diameter of 7.5 cm, and when it reached 1.5-leaf stage, 10 ml of a chemical solution having the compound of the present invention adjusted to a prescribed concentration, was applied by a spray gun. After the chemical solution dried, a suspension of conidia of Sphaerotheca cucurbitae was sprayed and inoculated and maintained in a constant temperature chamber at 20° C. From 9 to 10 days after the inoculation, the area of sporulation was investigated, and the disease rate was determined in the same manner as in Test Example 1, and the results are shown in Tables 5 to 20. The average lesion area in the non-treated plot was determined in the same manner as for the treated plot except that water was applied by a spray gun instead of the chemical solution.
Further, theoretical values by the Colby's formula are shown in brackets in Tables 5 to 20.

The subject of another assay is Erysiphe graminis. Kind of assay: Test on preventive effect against wheat powdery mildew. More on the design: key: lesion area as % of non-treated plot: (treated/non-treated)×100. In kind it is in vivo. The settings on record: applied alone. Here is the method:
Wheat (cultivar: Norin-61-go) was cultivated in a plastic pot having a diameter of 7.5 cm, and when it reached 1.5-leaf stage, 10 ml of a chemical solution having each test compound adjusted to a prescribed concentration, was applied by a spray gun in an amount of 1000 L/ha. After the chemical solution dried, conidia of Erysiphe graminis were dusted and inoculated and maintained in a constant temperature chamber at 20° C. From 6 to 8 days after the inoculation, the area of sporulation was investigated, and the disease rate was determined in accordance with the following formula, and the results are shown in Tables 1 to 4. The average lesion area in the non-treated plot was determined in the same manner as for the treated plot except that water was applied by a spray gun instead of the chemical solution. Disease rate=(a/b)×100
a: average lesion area in the treated plot
b: average lesion area in the non-treated plot
Theoretical values were calculated in accordance with the Colby's formula. The fungicidal composition of the present invention has a synergistic effect regarding the test on preventive effect against wheat powdery mildew, when the experimental value is lower than the theoretical value. Theoretical values by the Colby's formula in such cases are shown in brackets in Tables 1 to 4.

`CC1CCN(C2C(c3c(F)cc(F)cc3F)=C(Cl)N=C3N=CNN32)CC1` (stereo not shown) [the compound of the formula (II)]: the Disease rate in the assay with Sphaerotheca cucurbitae (0.8 ppm) was 88.1; in the assay with Sphaerotheca cucurbitae (3.1 ppm) it was 17.2; with Sphaerotheca cucurbitae (6.3 ppm), 8.6.
On to `COC(=O)N(OC)c1ccccc1COc1ccn(-c2ccc(Cl)cc2)n1` [Pyraclostrobin], for which the Disease rate in the assay with Erysiphe graminis (100 ppm), in the assay with Erysiphe graminis (200 ppm) and in the assay on Erysiphe graminis (400 ppm) was 100 throughout.
Regarding `COC(=O)NCc1cc(/C(C)=N/OCc2cccc(C)n2)ccc1Cl` [Pyribencarb], the Disease rate in the assay with Sphaerotheca cucurbitae (12.5 ppm) is listed as 73.0; in the assay on Sphaerotheca cucurbitae (25 ppm), 63.2; in the assay on Sphaerotheca cucurbitae (50 ppm), 63.2.
With `S1SSSSSSS1` [sulfur, Sulfur], the Disease rate amounted to 98.0 with Sphaerotheca cucurbitae (6.3 ppm), 88.2 in the assay on Sphaerotheca cucurbitae (12.5 ppm) and 68.6 in the assay on Sphaerotheca cucurbitae (25 ppm).
On to `CC1COC(Cn2cncn2)(c2ccc(Oc3ccc(Cl)cc3)cc2Cl)O1` (stereo not shown) [Difenoconazole], for which the Disease rate is 85 in the assay with Erysiphe graminis (12.5 ppm), 70 in the assay on Erysiphe graminis (25 ppm) and 40 with Erysiphe graminis (50 ppm).
Regarding `COc1ccccc1N1CCS/C1=C(/C#N)Sc1cc(C(F)(F)F)ccc1F` [flutianil], the Disease rate in the assay on Sphaerotheca cucurbitae (0.0063 ppm) came out at 95; with Sphaerotheca cucurbitae (0.0125 ppm), 85; with Sphaerotheca cucurbitae (0.025 ppm), 65.
Regarding `O=C(Nc1ccccc1-c1ccc(Cl)cc1)c1cccnc1Cl` [Boscalid], the Disease rate in the assay on Sphaerotheca cucurbitae (6.3 ppm) is reported as 43.0; with Sphaerotheca cucurbitae (12.5 ppm), 43.0; in the assay with Sphaerotheca cucurbitae (25 ppm) it was 25.8.
As for `CC(C)CC(C)c1sccc1NC(=O)c1cn(C)nc1C(F)(F)F` (stereo not shown) [Penthiopyrad], the Disease rate in the assay on Sphaerotheca cucurbitae (0.4 ppm) is 77.4; in the assay with Sphaerotheca cucurbitae (0.8 ppm), 51.6; in the assay with Sphaerotheca cucurbitae (1.6 ppm), 17.2.
Consider `COc1cc(C)c(C(=O)c2c(Cl)cnc(Cl)c2C(F)(F)F)c(OC)c1OC` [Compound No. 39, 4-(2,3,4-trimethoxy-6-methylbenzoyl)-2,5-dichloro-3-trifluoromethylpyridine], for which the Disease rate in the assay on Erysiphe graminis (1.6 ppm) amounted to 85; in the assay on Erysiphe graminis (3.1 ppm), 75; in the assay with Erysiphe graminis (6.3 ppm) it was 60.
As for `COc1cc(C)c(C(=O)c2c(OC)cnc(Cl)c2C(F)(F)F)c(OC)c1OC` [Compound No. 40, 4-(2,3,4-trimethoxy-6-methylbenzoyl)-2-chloro-3-trifluoromethyl-5-methoxypyridine], the Disease rate with Sphaerotheca cucurbitae (1.6 ppm) amounted to 43.0; with Erysiphe graminis (0.8 ppm), 50.
As for `COc1cc(C)c(C(=O)c2c(OC)ncc(Cl)c2C)c(OC)c1OC` [Compound No. 35, 3-(2,3,4-trimethoxy-6-methylbenzoyl)-5-chloro-2-methoxy-4-methylpyridine], the Disease rate in the assay with Erysiphe graminis (0.8 ppm) is 70 and 100; in the assay with Erysiphe graminis (1.6 ppm), 70 and 100; in the assay with Erysiphe graminis (3.1 ppm) it was 100; with Erysiphe graminis (6.3 ppm) it was 60.
In the case of `C/C=C/C(=O)Oc1c(C(C)CCCCCC)cc([N+](=O)[O-])cc1[N+](=O)[O-]` (stereo not shown) [Mepthyldinocap, Meptyldinocap], the Disease rate in the assay with Sphaerotheca cucurbitae (0.8 ppm) was 75; in the assay on Sphaerotheca cucurbitae (1.6 ppm) it was 60; in the assay on Sphaerotheca cucurbitae (3.1 ppm), 60.
With `CC(=O)Oc1c(C)c(C)nc2c(F)cc(C(C)(C)C)cc12` [6-t-butyl-8-fluoro-2,3-dimethylquinolin-4-yl acetate], the Disease rate in the assay with Sphaerotheca cucurbitae (6.3 ppm) was 83.6; with Sphaerotheca cucurbitae (12.5 ppm), 63.9; with Sphaerotheca cucurbitae (25 ppm) it was 59.0; in the assay on Sphaerotheca cucurbitae (50 ppm), 34.4.
